Laboratory results: patent EP0897920A1, “NOVEL HETEROCYCLIC COMPOUNDS HAVING PLATELET AGGREGATION INHIBITORY EFFECTS” (MEIJI SEIKA KABUSHIKI KAISHA, priority 1996, dated 1997)
pIC50: −log10 of the molar value. Counter-ions that a name gives are not always drawn. Like-named read-outs stand apart in the source and are kept apart here.

Key:
[1] = target: T1, human platelet GPIIb/IIIa (Homo sapiens, UniProt P05106+P08514); test: Inhibitory activity against binding between platelet GPIIb/IIIa and fibrinogen (solid phase receptor binding)
T1 construct: the adsorbed GPIIb/IIIa was eluted with buffer A containing 2 mM GRGDSPK peptide; from tissue
Description: The inhibitory activity of the compounds of the present invention against binding between platelet GPIIb/IIIa and fibrinogen was examined by means of a human platelet GPIIb/IIIa solid phase receptor binding experiment system using a biotinylated human fibrinogen as a ligand.
At the outset, human platelet GPIIb/IIIa was purified according to a method established by Pytela, R et al. (Science, 231, 1559-1561 (1986)). Specifically, platelets collected from a normal human being was washed with TBS (0.15 M NaCl/50 mM Tris-HCl buffer (pH 7.5)) containing 0.2% (w/v) glucose. To the resultant pellet was added an equal amount of TBS containing 50 mM octylglucoside and 2 mM PMSF, followed by solubilization of membrane protein at 4°C for 20 min. The extract was centrifuged under conditions of 4°C, 3500 x g, and 20 min. To the supernatant were added 1 mM CaCl2 and 1 mM MgCl2. Thus, a sample for affinity chromatography was prepared. The solubilized protein solution was adsorbed on a GRGDSPK-Sepharose column which had been previously equilibrated with TBS containing 50 mM octylglucoside, 1 mM CaCl2, and 1 mM MgCl2 (buffer A). After washing with buffer A, the adsorbed GPIIb/IIIa was eluted with buffer A containing 2 mM GRGDSPK peptide.
The GRGDSPK-Sepharose was prepared by coupling of GRGDSPK peptide with CNBr-activated Sepharose 4B (manufactured by Pharmacia) according to the instruction manual of the manufacturer.
Next, a human platelet GPIIb/IIIa solid phase receptor binding test was carried out according to a method established by Mori et al. (Nippon Kessen Shiketsu Gakkaishi, 2(4), 323-329 (1991)).
Purified human platelet GPIIb/IIIa was adjusted to 2 µg/ml, and an 50 µl aliquot was adsorbed on each well of a 96 well microtiter plate at 4°C overnight. After washing with TBS containing 1 mM CaCl2 and 1 mM MgCl2, 100 µl of 1% bovine serum albumin was added to each of the wells, followed by blocking at 4°C overnight. The microtiter plate was then washed with TBS containing 0.01% Tween 20 (TBS-Tween 20), and 50 µl of biotinylated fibrinogen, which had been adjusted to 1 µg/ml, was added to each of the wells. Simultaneously, 50 µl of the test compound, which had been adjusted to appropriate concentrations, was added thereto, followed by a reaction at room temperature for 4 hr. After washing with TBS-Tween 20, 50 µl of peroxidase-labelled avidin, which had been diluted 4000 times with TBS, was added to each of the wells, followed by a reaction for 20 min. After washing with TBS-Tween 20, 50 µl of a solution of 1 mg/ml ABTS (2,2'-azino-bis(3-ethylbenzthiazoline-6-sulfonic acid) dissolved in a peroxidase substrate buffer, which had been diluted 10 times, was added to each of the wells, and a reaction was allowed to proceed for 5 min. Next, 50 µl of a 0.1 M citric acid buffer (pH 4.3) containing 0.05% NaN3 was added to each of the wells to terminate the reaction, and the absorbance was measured at 415 nm.
The binding inhibition was calculated by the following equation.
Binding inhibition (%) = [1 - (absorbance with test compound/absorbance without test compound)] x 100

[2] = target: T2, human TXA2 synthetase (Homo sapiens, UniProt P24557); test: Inhibitory activity against thromboxane A2 (TXA2) synthetase; format: biochemical
T2 construct: purchased BIOMOL
T2 sequence (P24557 1-533): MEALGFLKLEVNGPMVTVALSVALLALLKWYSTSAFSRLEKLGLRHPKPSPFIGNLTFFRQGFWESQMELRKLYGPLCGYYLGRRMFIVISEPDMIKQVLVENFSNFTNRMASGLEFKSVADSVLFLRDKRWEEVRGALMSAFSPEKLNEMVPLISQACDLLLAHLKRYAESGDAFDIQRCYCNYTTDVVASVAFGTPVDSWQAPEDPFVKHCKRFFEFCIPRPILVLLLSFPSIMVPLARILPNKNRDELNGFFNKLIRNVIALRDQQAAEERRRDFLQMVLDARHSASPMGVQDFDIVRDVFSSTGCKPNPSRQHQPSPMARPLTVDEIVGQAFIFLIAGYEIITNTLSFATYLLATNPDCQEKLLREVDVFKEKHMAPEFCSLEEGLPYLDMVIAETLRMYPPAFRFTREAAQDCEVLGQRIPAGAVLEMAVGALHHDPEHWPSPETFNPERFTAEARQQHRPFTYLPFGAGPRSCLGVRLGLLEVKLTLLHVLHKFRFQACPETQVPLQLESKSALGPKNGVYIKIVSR
Procedure: The inhibitory activity of the compound of the present invention against TXA2 synthetase was assayed according to a method established by Ri et al. (Nihon Yakuri Gakkaishi, 106, 31 (1995)). A specimen solution (10 µl) was added to 100 µl of a 50 mM Tris-HCl buffer (containing 0.1 M NaCl, pH 7.5, 25°C) containing 10 µg of human TXA2 synthetase (BIOMOL), and incubation was then carried out at 25°C for 3 min. Next, 2 µl of 50 µg/ml PGH2 solution (Cayman Chemical) was added thereto to initiate an enzyme reaction, followed by the reaction at 25°C for 3 min. An aqueous ferrous chloride solution (25 mM, 10 µl) was added thereto to terminate the reaction. The reaction system was allowed to stand at room temperature for 15 min and then centrifuged under conditions of 4°C, 3000 x g, and 10 min. The supernatant was obtained as a sample for quantitative determination of TXB2. The amount of TXB2 was determined by means of Thromboxane B2 Enzyme Immunoassay Kit (Cayman Chemical). After a color reaction, the absorbance was measured at 415 nm with a microplate reader (MTP-32, manufactured by Corona Electric Co., Ltd.). The inhibition against TXA2 synthetase activity was calculated by the following equation, and 50% inhibition concentration was determined by regression straight line. Inhibition (%) = (1 - B/A) x 100 [formula] wherein • A represents the amount of TXB2 produced without the test compound; and • B represents the amount of TXB2 produced with the test compound.

[3] = tested on: human PRP (platelet rich plasma); test: Inhibitory activity against platelet aggregation (ADP-induced, human PRP); format: cell-based; settings: aggregation inducer ADP 5 µM, preincubated 2 min
Procedure: The inhibitory activity of the compound according to the present invention against platelet aggregation was examined with human PRP (platelet rich plasma).
Nine volumes of a blood sample was taken out of the vein of a normal human being with a syringe in which one volume of a 3.8% sodium citrate solution was charged. The blood sample was centrifuged at 170 x g at room temperature for 10 min. The supernatant thus obtained was isolated as PRP. The residual blood sample that PRP had been taken out was centrifuged at 2,700 x g for 15 min. The supernatant was then taken as platelet poor plasma (PPP).
A platelet aggregation test was carried out with an aggligometer (PAM-8C, manufactured by MEBANICKS Co. Ltd.). Compounds under test were dissolved in physiological saline, 0.1 N hydrochloric acid-physiological saline, or 1 N aqueous sodium hydroxide solution-physiological saline. The compound under test and PRP were preincubated for 2 min. An aggregation inducer ADP (CHRONO-PAR REAGENTS 384 ADP, CHRONO-LOG Corp.) was used after dilution with physiological saline to a final concentration of 5 µM.
The anti-platelet aggregation activity was determined as an inhibition rate to platelet aggregation effect of ADP in the absence of a compound under tent as follows. Anti-platelet aggregation activity (%) = [1 - (aggregation rate by ADP in the presence of test compound/aggregation rate by ADP in the absence of test compound)] x 100 [formula]

[4] = purified human platelet GPIIb/IIIa, biotinylated human fibrinogen as ligand, read-out: IC50
[5] = human TXA2 synthetase, PGH2 substrate, 25°C, TXB2 determined by enzyme immunoassay, read-out: IC50

T1 sequence (P08514 32-887 limits assumed): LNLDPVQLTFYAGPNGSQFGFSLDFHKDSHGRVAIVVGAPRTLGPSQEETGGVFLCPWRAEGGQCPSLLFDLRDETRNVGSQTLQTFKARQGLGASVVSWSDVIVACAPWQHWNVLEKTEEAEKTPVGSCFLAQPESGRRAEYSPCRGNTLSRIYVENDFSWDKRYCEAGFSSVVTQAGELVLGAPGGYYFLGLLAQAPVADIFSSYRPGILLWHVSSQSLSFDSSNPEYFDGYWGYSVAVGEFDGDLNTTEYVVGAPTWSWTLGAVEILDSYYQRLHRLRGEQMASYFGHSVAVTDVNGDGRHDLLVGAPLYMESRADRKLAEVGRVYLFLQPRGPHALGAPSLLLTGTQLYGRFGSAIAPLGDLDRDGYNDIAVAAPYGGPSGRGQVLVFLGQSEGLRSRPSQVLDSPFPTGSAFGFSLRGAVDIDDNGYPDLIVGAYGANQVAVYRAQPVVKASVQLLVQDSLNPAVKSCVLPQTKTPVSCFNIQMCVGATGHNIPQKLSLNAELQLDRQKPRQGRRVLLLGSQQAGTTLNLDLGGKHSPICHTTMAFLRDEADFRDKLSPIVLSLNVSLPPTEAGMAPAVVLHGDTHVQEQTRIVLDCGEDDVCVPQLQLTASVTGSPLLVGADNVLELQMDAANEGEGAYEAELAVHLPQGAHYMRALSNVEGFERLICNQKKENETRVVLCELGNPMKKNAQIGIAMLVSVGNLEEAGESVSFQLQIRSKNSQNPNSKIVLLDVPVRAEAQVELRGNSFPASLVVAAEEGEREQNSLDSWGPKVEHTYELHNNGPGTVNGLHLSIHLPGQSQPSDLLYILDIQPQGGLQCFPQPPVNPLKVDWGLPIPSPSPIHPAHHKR
T1 sequence (P08514 891-1039 partner limits assumed): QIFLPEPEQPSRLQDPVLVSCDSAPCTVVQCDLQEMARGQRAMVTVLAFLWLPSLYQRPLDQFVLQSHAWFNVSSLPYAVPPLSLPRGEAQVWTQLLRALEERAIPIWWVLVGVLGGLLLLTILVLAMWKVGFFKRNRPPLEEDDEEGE
T1 sequence (P05106 27-788): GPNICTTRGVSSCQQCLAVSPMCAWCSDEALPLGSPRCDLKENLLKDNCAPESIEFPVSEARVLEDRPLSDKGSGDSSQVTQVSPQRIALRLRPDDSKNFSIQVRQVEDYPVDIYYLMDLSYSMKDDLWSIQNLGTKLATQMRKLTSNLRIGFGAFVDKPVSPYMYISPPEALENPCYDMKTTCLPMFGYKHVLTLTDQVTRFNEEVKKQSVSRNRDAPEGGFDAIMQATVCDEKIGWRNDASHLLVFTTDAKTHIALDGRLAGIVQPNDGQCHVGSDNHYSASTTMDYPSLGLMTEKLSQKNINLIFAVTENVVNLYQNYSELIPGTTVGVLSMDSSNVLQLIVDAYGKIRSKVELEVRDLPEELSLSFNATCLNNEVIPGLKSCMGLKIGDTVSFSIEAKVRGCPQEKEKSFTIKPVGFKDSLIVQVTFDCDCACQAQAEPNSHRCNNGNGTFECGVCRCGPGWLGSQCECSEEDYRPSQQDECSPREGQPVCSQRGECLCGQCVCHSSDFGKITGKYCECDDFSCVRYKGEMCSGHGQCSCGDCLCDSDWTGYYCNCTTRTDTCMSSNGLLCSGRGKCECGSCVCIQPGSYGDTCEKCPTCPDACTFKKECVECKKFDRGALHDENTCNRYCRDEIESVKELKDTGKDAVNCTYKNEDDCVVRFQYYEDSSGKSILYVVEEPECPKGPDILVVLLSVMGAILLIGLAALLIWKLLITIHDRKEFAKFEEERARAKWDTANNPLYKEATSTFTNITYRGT

Compound	pIC50 [1, 4]	pIC50 [2, 5]	pIC50 ([3]; Platelet)	pIC50 [3]	pIC50 ([1]; purified human platelet GPIIb/IIIa, biotinylated human fibrinogen as ligand)	pIC50 ([2]; human TXA2 synthetase, PGH2 substrate, 25°C, TXB2 determined by enzyme immunoassay)	pIC50 [1]	pIC50 [2]
O=C(O)COc1ccc(C(=O)CNC(=O)c2cc3c(s2)CCNC3)cc1Cn1ccnc1 [Example 1, [2-(Imidazol-1-yl)methyl-4-[[[4,5,6,7-tetrahydrothieno[3,2-c]pyridin-2-yl]carbonylamino]acetyl]phenyl]oxyacetic acid trifluoroacetate (TFA)]	6.57	6.44	5.36					
O=C(O)COc1ccc(C(CNC(=O)c2cc3c(s2)CCNC3)Oc2cccnc2)cc1 (stereo not drawn) [Example 5, [4-[2-[[(4,5,6,7-Tetrahydrothieno[3,2-c]pyridin-2-yl)carbonyl]amino]-1-(pyridin-3-yl)oxyethyl]phenyl]oxyacetic acid trifluoroacetate]	8.00	6.80	6.55					
[4-[[4-(Piperidin-4-yl)-2-oxopiperazin-1-yl]acetyl]-2-(3-pyridyloxymethyl)phenyl]oxyacetic acid trifluoroacetate [Example 7]	7.64	< 5.00		7.03				
O=C(O)COc1ccc(C(=O)CN2C(=O)CN(C3CCNCC3)CC2=O)cc1Cn1ccnc1 [Example 8, [2-(1-Imidazolylmethyl)-4-[[4-(piperidin-4-yl)-2,6-dioxopiperazin-1-yl]acetyl]phenyl]oxyacetic acid trifluoroacetate]			7.51		6.72	6.16		
O=C(O)COc1ccc(C(=O)CNC(=O)c2cc3c(s2)CCNC3)cc1COc1cccnc1 [Example 2, [2-(Pyridin-3-yl)oxymethyl-4-[[[4,5,6,7-tetrahydrothieno[3,2-c]pyridin-2-yl]carbonylamino]acetyl]phenyl]oxyacetic acid trifluoroacetate]	6.57	< 5.00	5.03					
O=C(O)COc1ccc(C(=O)CN2CCN(C3CCNCC3)CC2=O)cc1Cn1ccnc1 [Example 6, [2-(1-Imidazolylmethyl)-4-[[4-(piperidin-4-yl)-2-oxopiperazin-1-yl]acetyl]phenyl]oxyacetic acid trifluoroacetate]			7.15				7.92	6.24
CN(CC(Oc1cccnc1)c1ccc(OCC(=O)O)c(OCC(=O)O)c1)C(=O)c1cc2c(s1)CCNC2 (stereo not drawn) [Example 4, [[4-[2-[[(4,5,6,7-Tetrahydrothieno[3,2-c]pyridin-2-yl)carbonyl]-N-methylamino]-1-(pyridin-3-yl)oxyethyl]-o-phenylene]dioxy]diacetic acid trifluoroacetate]	8.32	6.06	6.85					
O=C(O)COc1ccc(C(CNC(=O)c2cc3c(s2)CCNC3)Oc2cccnc2)cc1OCC(=O)O (stereo not drawn) [Example 3, [[4-[2-[[4,5,6,7-Tetrahydrothieno[3,2-c]pyridin-2-yl]carbonyl]amino-1-[(pyridin-3-yl)oxy]ethyl]-o-phenylene]dioxy]diacetic acid trifluoroacetate]	8.85	6.26	6.44					
